Values quoted from earlier work as cited in patent publication US20230405112A1, “PHARMACEUTICAL COMPOSITION, PHARMACEUTICAL COMBINED FORMULATION, AND COMBINED FORMULATION KIT FOR PREVENTION OR TREATMENT OF CHRONIC HEPATITIS B, EACH COMPRISING, AS ACTIVE INGREDIENT, ORAL ANTIVIRAL AGENT AND THERAPEUTIC VACCINE INCLUDING LIPOPEPTIDE AND POLY(I:C) ADJUVANT” (CHA VACCINE RESEARCH INSTITUTE CO., LTD, priority 2020, published 2023).
Where “and” joins values, the source holds several entries; their conditions need not be identical. Equal values may be shown once. Where a name gives a salt, the structure may show the parent alone. Read-outs that look alike come from different tables or passages of the source.

Legend:
[1] = system: hepatitis B virus; conditions: after 1 year of treatment
[2] = system: hepatitis B virus
[3] = system: hepatitis B virus; conditions: Chinese patients; 7 years
[4] = system: hepatitis B virus; remark: listed apart in the source
[5] = system: hepatitis B virus; remark: listed apart in the source
[6] = system: virus-specific cytotoxic T lymphocytes (CTLs); conditions: combined with an influenza virus T cell epitope; administered to mice
[7] = HBeAg(+), phase 3, 2 year results
[8] = baseline HBeAg(+), 1 year (week 48)
[9] = baseline HBeAg(+), 2 years (week 96)
[10] = baseline HBeAg(−), 1 year (week 48)
[11] = baseline HBeAg(−), 2 years (week 96)
[12] = HBeAg(+), 3-year follow-up, (non-Asian)
[13] = HBeAg(+), phase 3, 1 year, (non-Asian)
[14] = all patients, 10-year follow-up

CC(C)(C)C(=O)OCOP(=O)(COCCn1cnc2c(N)ncnc21)OCOC(=O)C(C)(C)C [ADV, Adefovirdipivoxil]
ALT nomalisatioin ([1]; HBeAg(+) patients): 48~54% | Anti-Hbe-seroconversion ([1]; HBeAg(+) patients): 12~18% | HBV DNA <60~80 IU/ml ([1]; HBeAg(+) patients): 13~21% | HBs Ag loss ([1]; HBeAg(+) patients): 0% | ALT nomalisatioin ([1]; HBeAg(−) patients): 72~77% | HBV DNA <60~80 IU/ml ([1]; HBeAg(−) patients): 51~63% | HBs Ag loss ([1]; HBeAg(−) patients): 0%

C=C1[C@H](CO)[C@@H](O)C[C@@H]1n1cnc2c(=O)[nH]c(N)nc21 [Entecavir]
ALT nomalisatioin ([1]; HBeAg(+) patients): 68% | Anti-Hbe-seroconversion ([1]; HBeAg(+) patients): 21% | HBV DNA <60~80 IU/ml ([1]; HBeAg(+) patients): 67% | HBs Ag loss ([1]; HBeAg(+) patients): 2% | ALT nomalisatioin ([1]; HBeAg(−) patients): 78% | HBV DNA <60~80 IU/ml ([1]; HBeAg(−) patients): 90% | HBs Ag loss ([1]; HBeAg(−) patients): 0% | HBeAg seroconversion (%) ([2]; 5 year results): 23% | HBeAg seroconversion n/N ([2]; 5 year results): 33/141 | HBsAg loss (%) ([2]; HBeAg(+), 5 year results): 1.4% | HBsAg loss n/N ([2]; HBeAg(+), 5 year results): 2/145 | HBsAg loss (%) [2, 7]: 5% | HBsAg loss n/N [2, 7]: 18/354 | HBsAg seroconversion (%) [2, 7]: 2% | HBsAg seroconversion n/N [2, 7]: 6/354 | HBeAg seroconversion (%) ([2]; phase 3, 2 year results): 31% | HBeAg seroconversion n/N ([2]; phase 3, 2 year results): 110/354 | HBeAg seroconversion rate (Kaplan-meier analysis) [3]: 82.1% | HBsAg loss (%) [3]: 2.5% | HBsAg loss, patients [3]: 4 of 160

Nc1ccn([C@@H]2CS[C@H](CO)O2)c(=O)n1 [LAM, Lamivudine]
ALT nomalisatioin ([1]; HBeAg(+) patients): 41~72% | Anti-Hbe-seroconversion ([1]; HBeAg(+) patients): 16~18% | HBV DNA <60~80 IU/ml ([1]; HBeAg(+) patients): 36~44% | HBs Ag loss ([1]; HBeAg(+) patients): 0~1% | ALT nomalisatioin ([1]; HBeAg(−) patients): 71~79% | HBV DNA <60~80 IU/ml ([1]; HBeAg(−) patients): 72~73% | HBs Ag loss ([1]; HBeAg(−) patients): 0%

CC(C)OC(=O)[C@H](C)N[P@](=O)(CO[C@H](C)Cn1cnc2c(N)ncnc21)Oc1ccccc1 [TAF, Tenofoviralafenamide fumarate]
ALT nomalisatioin ([1]; HBeAg(+) patients): 72% | Anti-Hbe-seroconversion ([1]; HBeAg(+) patients): 10% | HBV DNA <60~80 IU/ml ([1]; HBeAg(+) patients): 64% | HBs Ag loss ([1]; HBeAg(+) patients): 1% | ALT nomalisatioin ([1]; HBeAg(−) patients): 83% | HBV DNA <60~80 IU/ml ([1]; HBeAg(−) patients): 94% | HBs Ag loss ([1]; HBeAg(−) patients): 0% | HBeAg loss (%) ([4]; Total, 1 year (week 48)): (14%) | HBeAg loss n/N ([4]; Total, 1 year (week 48)): 78/565 | HBsAg loss n/N ([4]; Total, 1 year (week 48)): 4/861 | HBeAg loss (%) ([4]; Total, 2 years (week 96)): (22%) | HBeAg loss n/N ([4]; Total, 2 years (week 96)): 123/565 | HBsAg loss (%) ([4]; Total, 2 years (week 96)): (<1%) | HBsAg loss n/N ([4]; Total, 2 years (week 96)): 8/861 | HBeAg seroconversion (%) ([4]; baseline HBeAg(+), 1 year): (10%) | HBeAg seroconversion n/N ([4]; baseline HBeAg(+), 1 year): 58/565 | HBsAg seroconversion (%) ([4]; baseline HBeAg(+), 1 year): (1%) | HBsAg seroconversion n/N ([4]; baseline HBeAg(+), 1 year): 3/576 | HBeAg loss n/N [4, 8]: 78/565 | HBsAg loss n/N [4, 8]: 4/576 | HBeAg seroconversion (%) ([4]; baseline HBeAg(+), 2 years): (18%) | HBeAg seroconversion n/N ([4]; baseline HBeAg(+), 2 years): 99/565 | HBsAg seroconversion (%) ([4]; baseline HBeAg(+), 2 years): (1%) | HBsAg seroconversion n/N ([4]; baseline HBeAg(+), 2 years): 6/576 | Average reduction of HBsAg [4, 9]: −0.51 log10IU/ml | HBeAg loss n/N [4, 9]: 123/565 | HBsAg loss n/N [4, 9]: 7/576 | HBsAg seroconversion n/N ([4]; baseline HBeAg(−), 1 year): 0 | HBsAg loss n/N [4, 10]: 0 | HBsAg seroconversion (%) ([4]; baseline HBeAg(−), 2 years): (<1%) | HBsAg seroconversion n/N ([4]; baseline HBeAg(−), 2 years): 1/281 | Average reduction of HBsAg [4, 11]: −0.14 log10IU/ml | HBsAg loss (%) [4, 11]: (<1%) | HBsAg loss n/N [4, 11]: 1/281

Cc1cn([C@@H]2C[C@@H](O)[C@H](CO)O2)c(=O)[nH]c1=O [TBV, Telbivudine]
ALT nomalisatioin ([1]; HBeAg(+) patients): 77% | Anti-Hbe-seroconversion ([1]; HBeAg(+) patients): 22% | HBV DNA <60~80 IU/ml ([1]; HBeAg(+) patients): 60% | HBs Ag loss ([1]; HBeAg(+) patients): 0.5% | ALT nomalisatioin ([1]; HBeAg(−) patients): 74% | HBV DNA <60~80 IU/ml ([1]; HBeAg(−) patients): 88% | HBs Ag loss ([1]; HBeAg(−) patients): 0%

CC(C)OC(=O)OCOP(=O)(CO[C@H](C)Cn1cnc2c(N)ncnc21)OCOC(=O)OC(C)C [TDF, Tenofovirdisoproxil fumarate]
ALT nomalisatioin ([1]; HBeAg(+) patients): 68% | Anti-Hbe-seroconversion ([1]; HBeAg(+) patients): 21% | HBV DNA <60~80 IU/ml ([1]; HBeAg(+) patients): 76% | HBs Ag loss ([1]; HBeAg(+) patients): 3% | ALT nomalisatioin ([1]; HBeAg(−) patients): 76% | HBV DNA <60~80 IU/ml ([1]; HBeAg(−) patients): 93% | HBs Ag loss ([1]; HBeAg(−) patients): 0% | HBeAg loss (%) ([4]; Total, 1 year (week 48)): (12%) | HBeAg loss n/N ([4]; Total, 1 year (week 48)): 34/285 | HBsAg loss (%) ([4]; Total, 1 year (week 48)): (<1%) | HBsAg loss n/N ([4]; Total, 1 year (week 48)): 1 out of 428 and 1/428 | HBeAg loss (%) ([4]; Total, 2 years (week 96)): (18%) | HBeAg loss n/N ([4]; Total, 2 years (week 96)): 51/285 | HBsAg loss (%) ([4]; Total, 2 years (week 96)): (<1%) | HBsAg loss n/N ([4]; Total, 2 years (week 96)): 4/428 | HBeAg seroconversion (%) ([4]; baseline HBeAg(+), 1 year): (8%) | HBeAg seroconversion n/N ([4]; baseline HBeAg(+), 1 year): 23/285 | HBsAg seroconversion n/N ([4]; baseline HBeAg(+), 1 year): 0 | HBeAg loss n/N [4, 8]: 34/285 | HBsAg loss n/N [4, 8]: 1/288 | HBeAg seroconversion (%) ([4]; baseline HBeAg(+), 2 years): (12%) | HBeAg seroconversion n/N ([4]; baseline HBeAg(+), 2 years): 35/285 | HBsAg seroconversion n/N ([4]; baseline HBeAg(+), 2 years): 0 | Average reduction of HBsAg [4, 9]: −0.64 log10IU/ml | HBeAg loss n/N [4, 9]: 51/285 | HBsAg loss n/N [4, 9]: 4/288 | HBsAg seroconversion n/N ([4]; baseline HBeAg(−), 1 year): 0 | HBsAg loss n/N [4, 10]: 0 | HBsAg seroconversion n/N ([4]; baseline HBeAg(−), 2 years): 0 | Average reduction of HBsAg [4, 11]: −0.10 log10IU/ml | HBsAg loss n/N [4, 11]: 0 | HBeAg loss (%) ([5]; HBeAg(+), 3-year follow-up): 34% | HBeAg seroconversion (%) ([5]; HBeAg(+), 3-year follow-up): 26% | HBsAg loss (%) [kaplan-meier] [5, 12]: 8% | HBsAg seroconversion (%) [kaplan-meier] [5, 12]: 6% | HBsAg seroconversion, n patients [5, 12]: (n = 15) | HBeAg loss n/N ([5]; HBeAg(+), 7-year follow-up): 84/154 | HBeAg seroconversion n/N ([5]; HBeAg(+), 7-year follow-up): 61/154 | HBsAg loss (%) [kaplan-meier] ([5]; HBeAg(+), 7-year follow-up): 11.8% | HBsAg loss, n patients ([5]; HBeAg(+), 7-year follow-up): (n = 27) | HBsAg seroconversion (%) [kaplan-meier] ([5]; HBeAg(+), 7-year follow-up): 9.7% | HBsAg seroconversion, n patients ([5]; HBeAg(+), 7-year follow-up): (n = 21) | HBeAg loss n/N ([5]; HBeAg(+), 10-year follow-up): 12/23 | HBeAg seroconversion n/N ([5]; HBeAg(+), 10-year follow-up): 6/22 | HBsAg loss n/N ([5]; HBeAg(+), 10-year follow-up, (non-Asian)): 4/81 | HBeAg seroconversion n/N ([5]; HBeAg(+), phase 3, 1 year): 32/153 | HBsAg loss n/N [5, 13]: 5/158 | HBsAg seroconversion n/N [5, 13]: 2/158 | HBsAg loss n/N ([5]; HBeAg(−), 3-year follow-up): 0 | HBsAg seroconversion n/N ([5]; HBeAg(−), 3-year follow-up): 0 | HBsAg seroconversion n/N ([5]; HBeAg(−), 7-year follow-up): 0 | HBsAg loss n/N ([5]; HBeAg(−), 10-year follow-up, (non-Asian)): 4/117 | HBsAg loss n/N ([5]; HBeAg(−), phase 3, 1 year): 0 | HBsAg seroconversion n/N ([5]; HBeAg(−), phase 3, 1 year): 0 | HBsAg loss (%) [5, 14]: 4.0% | HBsAg loss n/N [5, 14]: 8/198 | HBsAg loss, number of patients ([5]; all patients, over 7 years): 28 | change of HBsAg levels ([5]; patients first receiving oral antiviral agent, after 2 years (96 weeks), FIG. 1): no significant change

Pam3Cys-Ser-Ser
virus-specific cytotoxic T lymphocytes (CTLs) [6]: induced
